Drawing on patent US20080027035A1, “Dpp-Iv Inhibitors” (GRAFFINITY PHARMACEUTICALS AG, priority 2003, published 2008), this text covers IC50 for 43 compounds.

This assay deals with T1, DPP-IV (Homo sapiens, UniProt P27487).
T1 construct: Soluble human DPP-IV lacking the transmembrane anchor (Gly31-Pro766); Pre-Pro-alpha-mating factor leader (secretion signal) (N, cleaved yes); made in house
Kind of assay: Inhibition of DPP-IV peptidase activity, continuous fluorimetric assay (Gly-Pro-AMC cleavage). It is filed as biochemical. The conditions noted are these: 16 μM Gly-Pro-AMC, pH 7.4, 25° C., 1% DMSO. The protocol:
Inhibition of DPP-IV peptidase activity was monitored with a continuous fluorimetric assay. This assay is based on the cleavage of the substrate Gly-Pro-AMC (Bachem) by DPP-IV, releasing free AMC. The assay is carried out in 96-well microtiterplates. In a total volume of 100 μL, compounds are preincubated with […] employing a buffer containing 10 mM Hepes, 150 mM NaCl, 0.005% Tween 20 (pH 7.4). […] The final concentration of DMSO is 1%. The inhibitory potential of the compounds were determined.
Soluble human DPP-IV lacking the transmembrane anchor (Gly31-Pro766) was expressed in a recombinant YEAST-strain as Pre-Pro-alpha-mating fusion.

T1 sequence (P27487 31-766): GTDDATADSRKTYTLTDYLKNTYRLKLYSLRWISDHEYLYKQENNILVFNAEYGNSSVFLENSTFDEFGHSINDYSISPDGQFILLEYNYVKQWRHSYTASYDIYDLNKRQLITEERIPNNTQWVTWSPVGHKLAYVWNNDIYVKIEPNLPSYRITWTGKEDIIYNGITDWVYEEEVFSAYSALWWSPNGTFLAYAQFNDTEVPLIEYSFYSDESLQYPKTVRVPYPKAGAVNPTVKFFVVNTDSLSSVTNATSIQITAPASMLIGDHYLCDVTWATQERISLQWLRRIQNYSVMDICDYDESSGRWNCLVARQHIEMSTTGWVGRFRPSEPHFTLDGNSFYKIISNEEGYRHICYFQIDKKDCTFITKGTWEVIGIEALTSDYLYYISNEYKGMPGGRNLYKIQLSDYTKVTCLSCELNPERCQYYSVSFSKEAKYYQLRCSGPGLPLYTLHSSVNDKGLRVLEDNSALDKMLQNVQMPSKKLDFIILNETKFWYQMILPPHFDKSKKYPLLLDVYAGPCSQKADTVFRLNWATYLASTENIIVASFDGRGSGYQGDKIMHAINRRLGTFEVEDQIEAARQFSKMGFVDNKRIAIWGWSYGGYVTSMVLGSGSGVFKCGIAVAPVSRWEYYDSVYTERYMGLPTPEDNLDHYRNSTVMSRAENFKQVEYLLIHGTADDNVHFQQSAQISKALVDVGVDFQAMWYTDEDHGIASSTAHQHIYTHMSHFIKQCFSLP

For the compound `N[C@@H](CC(=O)N1CCCC(CNC(=O)c2ccccc2)C1)Cc1ccccc1F` (mixture of isomers) [Example 94, N-{1-[(3R)-Amino-4-(2-fluoro-phenyl)-butyryl]-piperidin-3-ylmethyl}-benzamide], the IC50 was 101 to 1000 nM.
The compound `N[C@@H](CC(=O)N1CCCC(CO)C1)Cc1ccccc1F` (mixture of isomers) [Example 105, 3-Amino-4-(2-fluoro-phenyl)-1-(3-hydroxymethyl-piperidin-1-yl)-butan-1-one] yielded an IC50 of 1000 to 2000 nM.
In turn, `N[C@@H](CC(=O)N1CCC[C@H]1COCc1ccccc1)Cc1ccccc1F` [Example 32, (3R)-Amino-1-[(2S)-benzyloxymethyl-pyrrolidin-1-yl]-4-(2-fluoro-phenyl)-butan-1-one] gave an IC50 of 101 to 1000 nM.
`COC[C@@H]1CCCN1C(=O)C[C@H](N)Cc1ccccc1F` [Example 33] displayed an IC50 of 101 to 1000 nM.
On to `N#Cc1ccc(OC[C@@H]2CCCN2C(=O)C[C@H](N)Cc2ccccc2F)cc1` [Example 34], for which the IC50 was less than 100 nM.
As to `N[C@@H](CC(=O)N1CCC[C@H]1COc1ccccc1)Cc1ccccc1F` [Example 35], the IC50 was less than 100 nM.
For the compound `N#Cc1cccc(OC[C@@H]2CCCN2C(=O)C[C@H](N)Cc2ccccc2F)c1` [Example 36], the IC50 is less than 100 nM.
In turn, `N#Cc1ccccc1OC[C@@H]1CCCN1C(=O)C[C@H](N)Cc1ccccc1F` [Example 37] had an IC50 of less than 100 nM.
To `N[C@@H](CC(=O)N1CCC[C@H]1COc1ccc(F)cc1)Cc1ccccc1F` [Example 38] belongs less than 100 nM; to `N[C@@H](CC(=O)N1CCC[C@H]1COc1ccccn1)Cc1ccccc1F` [Example 39], less than 100 nM; to `N[C@@H](CC(=O)N1CCC[C@H]1COc1cccc(F)c1)Cc1ccccc1F` [Example 40], less than 100 nM.
On to `N[C@@H](CC(=O)N1CCC[C@H]1COc1cccc(F)c1)Cc1cccc(Cl)c1` [Example 41], for which the IC50 was less than 100 nM.
Turning to `N[C@@H](CC(=O)N1CCC[C@H]1CNC(=O)c1ccccc1)Cc1ccc(F)cc1` [Example 44], the IC50 is 101 to 1000 nM.
`N[C@@H](CC(=O)N1CCC[C@H]1CNC(=O)c1ccccc1)Cc1cccc(Cl)c1` [Example 45] had an IC50 of less than 100 nM.
The compound `N[C@@H](CC(=O)N1CCC[C@H]1CNC(=O)c1ccccc1)Cc1cccc(F)c1` [Example 46] showed an IC50 of less than 100 nM.
`N#Cc1cccc(C[C@@H](N)CC(=O)N2CCC[C@H]2CNC(=O)c2ccccc2)c1` [Example 47] gave an IC50 of 101 to 1000 nM.
As to `N[C@@H](CC(=O)N1CCC[C@H]1CNC(=O)c1ccccc1)Cc1ccccc1Cl` [Example 48], the IC50 is less than 100 nM.
`N[C@@H](CC(=O)N1CCC[C@H]1CNC(=O)c1ccccc1)Cc1ccccc1` [Example 49] yielded an IC50 of 101 to 1000 nM.
Turning to `N[C@@H](CC(=O)N1CCC[C@H]1CNC(=O)c1ccccc1)Cc1ccc(F)c(F)c1` [Example 50], the IC50 is less than 100 nM.
With `COc1cccc(C(=O)NC[C@@H]2CCCN2C(=O)C[C@H](N)Cc2ccccc2F)c1` [Example 54, N-{1-[3-Amino-4-(2-fluoro-phenyl)-butyryl]-pyrrolidin-2-ylmethyl}-3-methoxy-benzamide], the IC50 is less than 100 nM.
To `N[C@@H](CC(=O)N1CCC[C@H]1CNC(=O)c1ccccc1F)Cc1ccccc1F` [Example 55] belongs less than 100 nM; to `N[C@@H](CC(=O)N1CCC[C@H]1CNC(=O)c1cccc(F)c1)Cc1ccccc1F` [Example 56], less than 100 nM; to `N[C@@H](CC(=O)N1CCC[C@H]1CNC(=O)c1ccc(F)cc1)Cc1ccccc1F` [Example 57], less than 100 nM.
The same measure for `N[C@@H](CC(=O)N1CCC[C@H]1CNC(=O)c1cccnc1)Cc1ccccc1F` [Example 59]: less than 100 nM.
As for `N[C@@H](CC(=O)N1CCC[C@H]1CNC(=O)c1ccncc1)Cc1ccccc1F` [Example 60], the half-inhibitory concentration (IC50) was less than 100 nM.
The compound `CS(=O)(=O)c1ccc(C(=O)NC[C@@H]2CCCN2C(=O)C[C@H](N)Cc2ccccc2F)cc1` [Example 61] came in with an IC50 of less than 100 nM.
With `CS(=O)(=O)c1ccccc1C(=O)NC[C@@H]1CCCN1C(=O)C[C@H](N)Cc1ccccc1F` [Example 62], the IC50 was less than 100 nM.
On to `N[C@@H](CC(=O)N1CCC[C@H]1CNc1ccccc1)Cc1ccccc1F` [Example 66, (3R)-Amino-4-(2-fluoro-phenyl)-1-[(2S)-phenylaminomethyl-pyrrolidin-1-yl]-butan-1-one], for which the IC50 was less than 100 nM.
For the compound `N[C@@H](CC(=O)N1CCC[C@H]1CN1CCCC1)Cc1cccc(Cl)c1` [Example 67], the IC50 fell in the range of 101 to 1000 nM.
In turn, `N#Cc1ccc(NC[C@@H]2CCCN2C(=O)C[C@H](N)Cc2ccccc2F)nc1` [Example 68, 6-({1-[3-Amino-4-(2-fluoro-phenyl)-butyryl]-pyrrolidin-2-ylmethyl}-amino)-nicotinonitrile] showed an IC50 of less than 100 nM.
On to `N[C@@H](CC(=O)N1CCC[C@H]1CNc1cnccn1)Cc1ccccc1F` [Example 69], for which the IC50 lay within 101 to 1000 nM.
Compound `COc1ccc(S(=O)(=O)NC[C@@H]2CCCN2C(=O)C[C@H](N)Cc2ccccc2F)cc1OC` [Example 78, N-{1-[3-Amino-4-(2-fluoro-phenyl)-butyryl]-pyrrolidin-2-ylmethyl}-3,4-dimethoxy-benzenesulfonamide] had a 50% inhibitory concentration (IC50) of less than 100 nM.
In turn, `N[C@@H](CC(=O)N1CCC[C@H]1CNS(=O)(=O)c1cccc(F)c1)Cc1ccccc1F` [Example 79] showed an IC50 of less than 100 nM.
The same measure for `COc1ccc(S(=O)(=O)NC[C@@H]2CCCN2C(=O)C[C@H](N)Cc2ccccc2F)cc1` [Example 80]: less than 100 nM; for `N[C@@H](CC(=O)N1CCC[C@H]1CNS(=O)(=O)c1ccc(Cl)cc1)Cc1ccccc1F` [Example 81]: less than 100 nM; for `N[C@@H](CC(=O)N1CCC[C@H]1CNS(=O)(=O)c1cc(Cl)ccc1Cl)Cc1ccccc1F` [Example 82]: less than 100 nM.
Take `N[C@@H](CC(=O)N1CCC[C@H]1CNS(=O)(=O)c1ccccc1F)Cc1ccccc1F` [Example 83]: the IC50 was less than 100 nM.
`N[C@@H](CC(=O)N1CCC[C@H]1CNS(=O)(=O)c1ccc(F)cc1)Cc1ccccc1F` [Example 84] had an IC50 of less than 100 nM.
`CS(=O)(=O)NC[C@@H]1CCCN1C(=O)C[C@H](N)Cc1ccccc1F` [Example 85] displayed an IC50 of less than 100 nM.
Turning to `N[C@@H](CC(=O)N1CCC[C@H]1CNC(=O)Nc1ccccc1)Cc1ccccc1F` [Example 86, 1-{1-[(3R)-Amino-4-(2-fluoro-phenyl)-butyryl]-pyrrolidin-(2S)-ylmethyl}-3-phenyl-urea], the IC50 is less than 100 nM.
Compound `N[C@@H](CC(=O)N1CCCC[C@H]1CNC(=O)c1ccccc1)Cc1ccccc1F` [Example 87, N-{1-[(3R)-Amino-4-(2-fluoro-phenyl)-butyryl]-piperidin-(2S)-ylmethyl}-benzamide] gave an IC50 of 101 to 1000 nM.
As to `N[C@@H](CC(=O)N1CCCC[C@H]1CNS(=O)(=O)c1ccccc1)Cc1ccccc1F` [Example 88, N-{1-[(3R)-Amino-4-(2-fluoro-phenyl)-butyryl]-piperidin-(2S)-ylmethyl}-benzenesulfonamide], the IC50 was 101 to 1000 nM.
To `N[C@@H](CC(=O)N1CCCC(CNS(=O)(=O)c2ccccc2)C1)Cc1ccccc1F` (stereo partly shown) [Example 89, N-{1-[3-Amino-4-(2-fluoro-phenyl)-butyryl]-piperidin-3-ylmethyl}-benzenesulfonamide] belongs 101 to 1000 nM.
